The target of one test is S139A HCV NS3/4A PR (Hepatitis C virus subtype 1a, UniProt A8DG50, A1066T/I1043Q/I1044E/L1039E/L1040E/L1047Q/S1165A, form not given). Nature of the test: Isothermal calorimetry. The note with it: ITC, 37° C. Format: binding. How it is done:
(§1) Isothermal calorimetry (ITC) was carried out using the Auto-ITC 200 (Malvern), with a preliminary injection of 0.4 μl followed by 19 injections of 2 μl each, at 120 second intervals. Rotation of the solution was set to 750 rpm and temperature 37° C. […] The WT was run once; the S139A mutant was run in duplicate. The data were analysed with the ITC-PEAQ software (Malvern) using a one-site binding model and reference subtraction point-by-point.
For orientation: Isothermal titration calorimetry measures the heat released or taken up as one component is titrated into another.

In the next test the target is WT HCV NS3/4A PR (Hepatitis C virus subtype 1a, UniProt A8DG50, A1066T/I1043Q/I1044E/L1039E/L1040E/L1047Q, form not given). Nature of the test: Isothermal calorimetry. Format: binding. The conditions noted are these: ITC, 37° C. How it is done:
as §1

Test [1] concerns HCV NS3/4A PR (S139A):PRSIM_23. Nature of the test: HTRF complex formation with alternative HCV PR inhibitors. It is filed as binding, Hepatitis C virus subtype 1a. The note with it: simeprevir substituted with alternative inhibitor. The method, then:
(§2) scFv and Tn3 PRSIM binding molecules that were selective for the HCV NS3/4A PR (S139A) were identified in homogeneous time-resolved fluorescence (HTRF®) assays run in parallel to measure binding in the presence and absence of simeprevir. HCV NS3/4A PR (S139A), and serial dilutions of purified PRSIM binding molecules, were prepared in assay buffer (PBS containing 0.4 M potassium fluoride and 0.1% BSA). Streptavidin cryptate (Cisbio) was pre-mixed with either anti-FLAG XL665 (to detect the Tn3 molecules) or anti-c-myc XL665 (to detect the scFv molecules) in assay buffer. For each assay 2.5 μl of sample titration was added to 2.5 μl HCV NS3/4A PR (S139A) and 2.5 μl of pre-mixed detection reagents. Either 2.5 μl simeprevir or 2.5 μl of a DMSO blank were also added to each well. […] Assay plates were incubated overnight at 4° C., prior to reading the time resolved fluorescence at 620 nm and 665 nm emission wavelengths using a PerkinElmer Envision plate reader. Data was analysed by calculating % Delta F values for each sample. Delta F was determined according to equation 1.
(§3) There are several small molecule inhibitors that are known to bind the HCV NS3/4A protease and have been approved for human use. A panel of such small molecules were assessed for their ability to induce complex formation between HCV NS3/4A PR (S139A) and PRSIM_23 or PRSIM_57. […]

The subject of test [2] is HCV NS3/4A PR (S139A):PRSIM_57. The description is as above. It is filed as binding, Hepatitis C virus subtype 1a. The conditions noted are these: simeprevir substituted with alternative inhibitor. The method, then: as §2, §3
The subject of test [3] is HEK293 cells stably expressing the PRSIM-based kill switch. Nature of the test: Kill switch cell viability (phase contrast). It is filed as cell-based, human. The conditions noted are these: 100 nM simeprevir. The method, then:
(§4) Lentiviral particles encoding the kill switch fusion protein (SEQ ID NO: 223) or kill switch S196A mutant fusion protein (SEQ ID NO: 230) were generated using pPACKH1 HIV lentiviral packaging kit (Systems Bioscience), according to manufacturer's instructions. HEK293 cells were transduced for 24 h in the presence of 8 μg/ml polybrene after which cells were changed into fresh growth medium (DMEM+10% foetal bovine serum+1% Non-essential amino acids). 24 h later transduced cells were selected by addition of 2 μg/ml puromycin for 5 days. Before functional testing, transduced cell pools were FACS sorted based on GFP fluorescence to isolate high expressing cell line pools and single cell clones.
HEK293, HCT116 or HT29 cells stably expressing the PRSIM-based kill switch fusion protein (SEQ ID NO: 223) or HEK293 cells stably expressing the PRSIM kill switch S196A mutant fusion protein (SEQ ID NO: 230) were plated onto collagen-coated 96-well plates and 24 h later treated with 100 nM simeprevir. Phase contrast images were acquired at various timepoints using 10× or 20× objectives on an Incucyte Zoom (EssenBioscience).

The test system of test [4] is Caspase 3 activity in kill switch-transduced HEK293 cells. Nature of the test: Kill switch Caspase 3 functional assay. It is filed as cell-based, human. The note with it: relative to non-transduced cells. The method, then:
as §4
Functional Caspase 9 activates Caspase 3, and this proteolytic activity can be determined using cleavage of non-fluorescent substrate DEVD-AMC into cleavage products DEVD and fluorescent AMC, such that AMC fluorescence signal at 430 nm is proportional to Caspase 3 activity. For the Caspase 3 assay, cells were plated in duplicate onto 6 well tissue-culture treated plates. […] Cells lysates were analysed in triplicate using a Caspase 3 assay from BD Biosciences according to manufacturer's instruction with the modification that total protein input was normalised to 50 μg by BCA assay (LifeTechnologies). Fluorescence was determined on an Envision plate reader (PerkinElmer), Ex: 380 nm, Em: 430 nm. […]

“Also recorded” adds a separate entry of the source.

Take `COc1ccc2c(O[C@@H]3C[C@H]4C(=O)N[C@]5(C(=O)NS(=O)(=O)C6CC6)C[C@H]5/C=C\CCCCN(C)C(=O)[C@@H]4C3)cc(-c3nc(C(C)C)cs3)nc2c1C` [simeprevir]: the stoichiometry at S139A HCV NS3/4A PR and at WT HCV NS3/4A PR was about 0.6 Sim/NS3 binding sites throughout. In addition, the ΔH on S139A HCV NS3/4A PR and at WT HCV NS3/4A PR was about 22 kcal/mol each time. Moreover, the “induction of complex formation” value in test [1] and in test [2] was “induction of complex formation was specific for simeprevir” in each case. In test [3] (kill switch S196A), the cell killing entry is on record as “rapid cell killing in a timeframe comparable to the wt kill switch”. In addition, the cell death result in test [3] (wt kill switch) is reported as “rapid cell death”. For the same compound, the “Caspase 3 activity” value in test [4] (10 nM simeprevir 3 h, wt kill switch) is reported as “significantly (p<0.0001) up-regulated; also recorded: significantly (p<0.0005) upregulated”; in test [4] (10 nM simeprevir, S196A mutant kill switch) it was “significantly (p<0.0005) upregulated”.

These data come from patent publication US20220380801A1, “TRIPARTITE SYSTEMS FOR PROTEIN DIMERIZATION AND METHODS OF USE” (priority 2019, published 2022).
